The values below come from PubChem BioAssay (NCI).

Test systems include A549 NSCLC; HCT-15 colon; KM12 colon; MDA-MB-435; SF-268 CNS; SF-295 CNS; SF-539 CNS; SK-MEL-28 melanoma; SK-MEL-5 melanoma; TK-10 renal.
Experiment in all cases: NCI anticancer screen, dose series, 48 h

Each structure is given as a SMILES string.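 Interpolation was linear, between the two tested concentrations surrounding the appropriate level; five concentrations were tested over 48 hours in 96-well plates. GI50 is the concentration that inhibits growth by half. The concentration for full growth arrest is given as TGI.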 Where only a bound is given, the exact number is not on record here.

Consider `N#CC1=C(N)NC(=O)NC12Nc1ccccc1N2`, for which the GI50 in the assay on A549 NSCLC, with HCT-15 colon, in the assay on KM12 colon, in the assay with MDA-MB-435, with SF-268 CNS and with SF-295 CNS was greater than 100 µM in each case. Further, the GI50 in the assay with SF-539 CNS, in the assay on SK-MEL-28 melanoma, in the assay with SK-MEL-5 melanoma and in the assay with TK-10 renal was greater than 100 µM throughout. The TGI in the assay on A549 NSCLC, in the assay on HCT-15 colon, in the assay with KM12 colon, with MDA-MB-435, in the assay on SF-268 CNS and with SF-295 CNS was greater than 100 µM each time. The TGI in the assay on SF-539 CNS, in the assay on SK-MEL-28 melanoma, with SK-MEL-5 melanoma and in the assay on TK-10 renal was greater than 100 µM in each case.

`O=C1NC(c2ccccc2)C2(C(=O)O)CN(C3CC3)c3cc(N4CCNCC4)c(F)cc3C2N1` (centres undefined): the GI50 with A549 NSCLC, with HCT-15 colon, with KM12 colon, with MDA-MB-435, in the assay with SF-268 CNS and in the assay on SF-295 CNS was greater than 100 µM each time. The GI50 in the assay on SF-539 CNS, in the assay on SK-MEL-28 melanoma, with SK-MEL-5 melanoma and with TK-10 renal was greater than 100 µM throughout. Moreover, the TGI in the assay on A549 NSCLC, with HCT-15 colon, in the assay with KM12 colon, in the assay with MDA-MB-435, in the assay on SF-268 CNS and in the assay with SF-295 CNS was greater than 100 µM in each case. Moreover, the TGI in the assay on SF-539 CNS, with SK-MEL-28 melanoma, with SK-MEL-5 melanoma and in the assay with TK-10 renal was greater than 100 µM throughout.

In the case of `COc1ccc2c(c1OC)C(=O)N1C2=Cc2c(cc3c(c2OC)OCO3)CC1N(C)C` (centres undefined), the TGI in the assay on A549 NSCLC, with HCT-15 colon, in the assay with KM12 colon, in the assay on MDA-MB-435, in the assay on SF-268 CNS and in the assay on SF-295 CNS was greater than 100 µM each time. Further, the TGI in the assay with SF-539 CNS, in the assay on SK-MEL-28 melanoma, with SK-MEL-5 melanoma and in the assay with TK-10 renal was greater than 100 µM throughout.

With `O=C[C@@H](CO)O[C@H](C=O)n1cnc2c(=O)[nH]cnc21`, the TGI came to 2460 µM in the assay with A549 NSCLC; 417 µM in the assay on HCT-15 colon; 1270 µM in the assay with KM12 colon; 2300 µM with MDA-MB-435; 1840 µM with SF-268 CNS; 2230 µM in the assay on SF-295 CNS. Also, the TGI came out at 2230 µM with SF-539 CNS, 1530 µM in the assay with SK-MEL-28 melanoma, 1150 µM in the assay with SK-MEL-5 melanoma and 1830 µM with TK-10 renal.

`O=C(O)c1ccc(SSc2ccc(C(=O)O)cn2)nc1`: the TGI in the assay with A549 NSCLC, in the assay on HCT-15 colon, in the assay with KM12 colon, with MDA-MB-435, in the assay with SF-268 CNS and in the assay with SF-295 CNS was greater than 100 µM each time. The TGI in the assay on SF-539 CNS, in the assay on SK-MEL-28 melanoma, in the assay with SK-MEL-5 melanoma and in the assay with TK-10 renal was greater than 100 µM in each case.

For the molecule `CC(SCc1ccccc1)C(=O)O` (centres undefined), the TGI with A549 NSCLC, in the assay with HCT-15 colon, in the assay with KM12 colon, in the assay on MDA-MB-435, in the assay with SF-268 CNS and with SF-295 CNS was greater than 100 µM in each case. The TGI in the assay with SF-539 CNS, with SK-MEL-28 melanoma, with SK-MEL-5 melanoma and in the assay on TK-10 renal was greater than 100 µM each time.

Regarding `CCn1c2ccccc2c2cc(C(=O)c3ccc(C)c4ccccc34)ccc21`, the GI50 in the assay on A549 NSCLC is 0.421 µM; with HCT-15 colon it was 0.329 µM; in the assay on KM12 colon it was 0.362 µM; with MDA-MB-435, 0.161 µM; in the assay on SF-268 CNS it was 0.877 µM; with SF-295 CNS, 0.273 µM. The GI50 in the assay on SF-539 CNS was 0.255 µM; in the assay on SK-MEL-28 melanoma, 0.477 µM; with SK-MEL-5 melanoma, 0.319 µM; in the assay with TK-10 renal, 0.658 µM. For the same molecule, the TGI is greater than 100 µM in the assay with A549 NSCLC; greater than 100 µM with HCT-15 colon; 14.9 µM in the assay with KM12 colon; 0.378 µM in the assay on MDA-MB-435; greater than 100 µM in the assay with SF-268 CNS; 0.936 µM with SF-295 CNS. Besides, the TGI was 0.802 µM in the assay with SF-539 CNS, greater than 100 µM in the assay with SK-MEL-28 melanoma, 1.41 µM in the assay on SK-MEL-5 melanoma and greater than 100 µM in the assay on TK-10 renal.

For `COc1ccc(S(=O)(=O)N(C(C)=O)c2ccccc2/C=C/c2cc[n+]([O-])cc2)cc1`, the GI50 was 0.636 µM in the assay with A549 NSCLC; 0.742 µM in the assay on HCT-15 colon; 0.335 µM in the assay on KM12 colon; 0.143 µM in the assay on MDA-MB-435; 1.71 µM with SF-268 CNS; 0.385 µM with SF-295 CNS. Further, the GI50 was 0.377 µM in the assay on SF-539 CNS, greater than 4.8 µM with SK-MEL-28 melanoma and 0.703 µM in the assay on SK-MEL-5 melanoma. The TGI is greater than 10 µM in the assay with A549 NSCLC; greater than 10 µM in the assay on HCT-15 colon; greater than 10 µM in the assay on KM12 colon; 0.576 µM in the assay with MDA-MB-435; greater than 10 µM in the assay with SF-268 CNS; greater than 10 µM in the assay with SF-295 CNS. In addition, the TGI with SF-539 CNS is 2.45 µM; in the assay on SK-MEL-28 melanoma, greater than 10 µM; with SK-MEL-5 melanoma, greater than 10 µM; with TK-10 renal it was greater than 10 µM.

As to `C=C(C)[C@@H]1CC[C@]2(C(=O)NS(=O)(=O)c3ccccc3)CC[C@]3(C)[C@H](CC[C@@H]4[C@@]5(C)CC[C@H](OC(=O)NS(=O)(=O)c6ccccc6)C(C)(C)[C@@H]5CC[C@]43C)[C@@H]12`, the GI50 is 3.24 µM with A549 NSCLC; 1.62 µM with HCT-15 colon; 1.34 µM in the assay on KM12 colon; 1.77 µM in the assay with MDA-MB-435; 3.03 µM in the assay on SF-268 CNS; 0.281 µM in the assay with SF-295 CNS. Also, the GI50 was 1.27 µM in the assay with SF-539 CNS, 2.05 µM in the assay with SK-MEL-28 melanoma, 1.48 µM in the assay with SK-MEL-5 melanoma and 2.43 µM with TK-10 renal. The TGI with A549 NSCLC was 21.8 µM; in the assay with HCT-15 colon it was 4.65 µM; in the assay on KM12 colon it was 2.96 µM; in the assay on MDA-MB-435, 4.89 µM; with SF-268 CNS it was 32.1 µM; in the assay on SF-295 CNS it was 2.23 µM. For the same molecule, the TGI worked out at 2.59 µM in the assay on SF-539 CNS, 5.32 µM with SK-MEL-28 melanoma, 2.98 µM with SK-MEL-5 melanoma and 10.3 µM in the assay with TK-10 renal.
